The text below walks through data of patent US20040254123A1, “Malignant cell differentiation inducer compositions and utilization of the same” (priority 2001, published 2004).

The test system of assay [1] is human neuroblastoma IMR-32 cells. The assay can be described thus: Pseudo-ganglion formation / differentiation of IMR-32 cells (phase-contrast microscope). Format: cell-based. The source says: As [^3H] acetyl-coenzyme A (acetyl-CoA), a product manufactured by Amersham was used, and as propidium iodide, acridine orange and choline chloride, products manufactured by Sigma were used. As fetal bovine serum (hereinafter, abbreviated as FCS), a product manufactured by Cansera International was used.
Morphological change of the cells, and the number of pseudo-ganglia formed were observed under a phase-contrast microscope (magnification: 200).

Assay [2] has as its system rat glioma C6 cells. Put plainly: Number of surviving C6 cells after SBA treatment (trypan blue). Format: cell-based. As to conditions: 3 days treatment. As to the method: Rat glioma C6 cells obtained from Japanese Cancer Research Resource Bank (JCRB) were inoculated on a medium in an amount of 1×10^5 cells/schale, cultured for 24 hours. […] Then, the cells were dyed with 0.2% trypan blue, then, the number of surviving cells was counted. The counted value of cell number represents average value±standard error (SE) of three continuous tests [*P<0.00301 and *P<0.00001 (in comparison with contrast)]. The counted value is shown as a bar graph in FIG. 3. This test was conducted in the absence of SBA, as a control test.

In assay [3] the test system is rat glioma C6 cells. Put plainly: Morphological change of C6 cells (phase-contrast microscope). As to conditions: 125 μg/ml SBA, 3 days. The format is cell-based.
The subject of assay [4] is patients having a cancer or tumor. Put plainly: Clinical trial, intravenous SBA in patients having a cancer or tumor. The format is in vivo, human. The source says: SBA can be administered, not only intravenously, but also into an abdominal cavity or subcutaneously, or orally.
Assay [5] has as its system patient having a cancer or tumor. As to conditions: intravenous 1.5 to 6 g per day per adult; cited from earlier work.

In the case of `O=C1O[C@H]([C@@H]2COC(c3ccccc3)O2)C(O)=C1O` (stereo partly drawn) [SBA, mono-sodium 5,6-O-benzylidene-L-ascorbate], the “survived cells induced to differentiate into neurocytes having neuritis” value in assay [1] (500 μg/ml SBA) is reported as 20 to 30%. Further, the “morphological change / formation of pseudo-ganglia” value in assay [1] (SBA treatment 48 hours) is listed as “IMR-32 cells form pseudo-ganglia”. Moreover, the “CD50 (proliferation of C6 cells)” value with rat glioma C6 cells [2] was found to be 250 µg/mL. In addition, the “morphological change of C6 cells” value in the assay on rat glioma C6 cells [3] is on record as “Formation of astrocytes was recognized”. Moreover, in assay [4] (3 mg/body once per day), the “effect on cancer in patient with attendant rheumatoid arthritis” value is “the cancer reduces”. The “differentiation of cancer or tumor cells in patients” value in assay [4] (intravenous 1 mg/body to 10 mg/body once per day per adult, 35 examples) was “induce differentiation of cancer cells or tumor cells into normal cells efficiently”. For the same compound, in assay [4] (patient with augmented new blood vessel in eye and eyeground hemorrhage, intravenous 1 to 10 mg/body once per day), the “differentiation of malignant cells forming new blood vessel” value is on record as “induces differentiation of malignant cells forming new blood vessel into normal cells”. Besides, the “total dimension of the carcinoma or tumor” value in assay [5] was “decreases”.
